Assay results from paper PMC6028453, “BrlR from Pseudomonas aeruginosa is a receptor for both cyclic di-GMP and pyocyanin” (Nature Communications, 2018).

Legend:
C2E mut1 DNA binding = biological target: T1, C2E mut1 DNA binding (Pseudomonas aeruginosa, UniProt Q9HUT5, D35A/R31A/Y270A/Y40A); test: EMSA, C2E mut1 with PbrlR DNA; format: biochemical
T1 construct: His6-SUMO (N, cleaved yes); made in house; host or cells: E. coli BL21 DE3
Method: A 6-carboxy-fluorescein (FAM)-labeled 36-bp brlR promoter DNA (PbrlR) or 80-bp mexA/mexE promoter DNA (PmexA/PmexE) probes (~0.375 pmol), BrlR protein and varying amounts of inducers were incubated in binding buffer (10 mM Tris HCl [pH 7.4], 50 mM KCl, 1 mM DTT, […] and 5 ng/mL poly [dI-dC]) for 60 min at 25 °C. Finally, glycerol was added to a concentration of 6.5%. The samples were subjected to a 5% polyacrylamide gel electrophoresis and run in 0.5 × Tris-borate-EDTA buffer at 80 V for 1 h at room temperature. Imaging and data analyses were performed using a Typhoon Scanner (GE Healthcare) and Imagequant software. The probes used are listed in Supplementary Table 1.

BrlR mutant R31A = biological target: T2, BrlR mutant R31A (Pseudomonas aeruginosa, UniProt Q9HUT5, R31A); test: FP binding assay, BrlR R31A
T2 construct: His6-SUMO (N, cleaved yes); made in house; host or cells: E. coli BL21 DE3
Method: (§1) F-c-di-GMP and F-c-di-AMP both contain a fluorophore at one of the 2′-ribose hydroxyls of c-di-GMP and c-di-AMP, respectively (Fig. 2f). To measure the binding of c-di-GMP and c-di-AMP to BrlR variants, 1 nM F-c-di-GMP or F-c-di-AMP was incubated with increasing amounts of indicated BrlR WT, BrlR mutation, or BrlR-C in reaction buffer (25 mM HEPES, 100 mM NaCl, pH 7.5) at 25 °C for 20 min. 1 nM fluorescein was incubated with BrlR WT in the same reaction buffer at 25 °C. FP measurements were conducted on a Synergy 4 Microplate Reader (BioTek) at 25 °C. All experiments were performed in triplicate. The curves were fitted to deduce binding affinities by GraphPad Prism 5.
(§2) BrlR–c-di-GMPs interactions in two separate c-di-GMP binding sites
(§3) In the first binding site, c-di-GMP is half accommodated by the antiparallel β-sheet and two residues (M1 and D35). In detail, the backbone amide protons of the first M1 residue form a hydrogen bond (H-bond) with the phosphate oxygen atom of c-di-GMP, and the side chain of R31 forms two H-bonds with the Gua1 base. The residue D35 also forms an H-bond with the Gua1 base. The aromatic ring of Y40 interacts with the Gua1 base through a hydrophobic π-π interaction. In addition, the hydroxyl group of the Y270 side chain from another subunit interacts with the phosphate 2 of c-di-GMP via an H-bond (Fig. 2d). […]

BrlR mutant Y270A = biological target: T3, BrlR mutant Y270A (Pseudomonas aeruginosa, UniProt Q9HUT5, Y270A); test: FP binding assay, BrlR Y270A
T3 construct: His6-SUMO (N, cleaved yes); made in house; host or cells: E. coli BL21 DE3
Method: as §1, §2, §3

BrlR mutant R67A = biological target: T4, BrlR mutant R67A (Pseudomonas aeruginosa, UniProt Q9HUT5, R67A); test: FP binding assay, BrlR R67A
T4 construct: His6-SUMO (N, cleaved yes); made in house; host or cells: E. coli BL21 DE3
Method: as §1, §2, §3

BrlR mutant R86A = biological target: T5, BrlR mutant R86A (Pseudomonas aeruginosa, UniProt Q9HUT5, R86A); test: FP binding assay, BrlR R86A
T5 construct: His6-SUMO (N, cleaved yes); made in house; host or cells: E. coli BL21 DE3
Method: as §1, §2, §3

BrlR = biological target: T6, BrlR (Pseudomonas aeruginosa, UniProt Q9HUT5); test: Surface plasmon resonance (SPR) analysis; format: binding; conditions: SPR, first submitted version of the manuscript (quoted by reviewer); authors later call it a very weak artificial affinity
T6 construct: His6-SUMO (N, cleaved yes); made in house; host or cells: E. coli BL21 DE3
Method: The binding affinity of diverse toxic compounds for BrlR were investigated by SPR using a BIAcore-T200 apparatus (GE Healthcare). The ligand, BrlR (20 μM in 10 mM sodium acetate, pH 4.5), was immobilized on an activated CM5 sensor chip by amine coupling (BIAcore) with 4400 response units (RU), and the unreacted sites were blocked with 1.0 M ethanolamine–HCl (pH 8.5). Steady-state binding analysis was performed with injections of different molecules at different concentrations over the immobilized BrlR surface at a flow rate of 20 μL min^−1 at 25 °C. Association was measured for 180 s, followed by 120 s of dissociation in running buffer (20 mM Hepes pH 7.5, 150 mM NaCl). The sensorgrams for specific interactions were obtained by subtracting the reference unimmobilized flow cell response from that of the sample. Since BrlR only has one binding site for pyocyanin or other toxic compounds (Fig. 5a–f), the kinetic analysis of the sensorgrams from analyte interaction with the immobilized BrlR was performed by fitting the binding curves to a 1:1 binding model. To determine the steady state KD values, equilibrium responses were plotted against analyte concentrations, and the resulting curves were fitted to the steady state model in the BIAevaluation software package, version 3.0 (GE Healthcare).

T6 sequence (Q9HUT5 whole entry): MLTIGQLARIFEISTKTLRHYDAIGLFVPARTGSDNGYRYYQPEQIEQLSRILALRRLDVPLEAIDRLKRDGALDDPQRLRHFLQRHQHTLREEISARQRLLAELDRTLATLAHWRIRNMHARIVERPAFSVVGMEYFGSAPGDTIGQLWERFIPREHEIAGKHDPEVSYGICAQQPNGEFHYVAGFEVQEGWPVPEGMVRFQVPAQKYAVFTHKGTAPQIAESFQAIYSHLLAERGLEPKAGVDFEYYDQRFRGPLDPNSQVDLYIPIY
T1 sequence (Q9HUT5 whole entry R31A/D35A/Y40A/Y270A): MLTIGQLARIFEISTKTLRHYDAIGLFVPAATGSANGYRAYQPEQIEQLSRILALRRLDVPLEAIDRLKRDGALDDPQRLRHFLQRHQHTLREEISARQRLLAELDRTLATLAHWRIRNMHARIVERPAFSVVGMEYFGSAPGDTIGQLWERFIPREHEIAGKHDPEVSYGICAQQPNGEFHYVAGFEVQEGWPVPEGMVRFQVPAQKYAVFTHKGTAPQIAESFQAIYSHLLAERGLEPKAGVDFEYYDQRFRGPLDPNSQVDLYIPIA
T5 sequence (Q9HUT5 whole entry R86A): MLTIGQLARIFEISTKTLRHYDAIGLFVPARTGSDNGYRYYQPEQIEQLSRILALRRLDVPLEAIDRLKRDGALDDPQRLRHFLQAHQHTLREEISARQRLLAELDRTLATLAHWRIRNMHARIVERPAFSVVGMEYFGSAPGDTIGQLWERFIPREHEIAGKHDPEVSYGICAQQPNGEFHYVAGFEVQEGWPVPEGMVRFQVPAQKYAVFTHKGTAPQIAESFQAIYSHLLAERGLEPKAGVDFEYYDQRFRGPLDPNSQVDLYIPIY
T2 sequence (Q9HUT5 whole entry R31A): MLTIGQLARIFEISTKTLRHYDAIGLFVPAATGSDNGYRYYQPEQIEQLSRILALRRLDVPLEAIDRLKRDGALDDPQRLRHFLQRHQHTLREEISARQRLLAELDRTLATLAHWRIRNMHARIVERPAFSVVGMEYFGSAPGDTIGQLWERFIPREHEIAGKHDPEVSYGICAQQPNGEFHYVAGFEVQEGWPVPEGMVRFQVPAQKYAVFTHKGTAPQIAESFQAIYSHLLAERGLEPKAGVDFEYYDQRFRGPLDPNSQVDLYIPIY
T4 sequence (Q9HUT5 whole entry R67A): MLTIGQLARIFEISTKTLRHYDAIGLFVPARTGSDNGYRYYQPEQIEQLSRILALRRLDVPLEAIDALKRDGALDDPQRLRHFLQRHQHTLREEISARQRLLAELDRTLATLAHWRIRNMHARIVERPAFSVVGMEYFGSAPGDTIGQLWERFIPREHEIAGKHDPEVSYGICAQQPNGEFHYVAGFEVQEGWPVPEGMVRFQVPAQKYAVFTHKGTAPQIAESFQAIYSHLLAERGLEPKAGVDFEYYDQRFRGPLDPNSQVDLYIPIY
T3 sequence (Q9HUT5 whole entry Y270A): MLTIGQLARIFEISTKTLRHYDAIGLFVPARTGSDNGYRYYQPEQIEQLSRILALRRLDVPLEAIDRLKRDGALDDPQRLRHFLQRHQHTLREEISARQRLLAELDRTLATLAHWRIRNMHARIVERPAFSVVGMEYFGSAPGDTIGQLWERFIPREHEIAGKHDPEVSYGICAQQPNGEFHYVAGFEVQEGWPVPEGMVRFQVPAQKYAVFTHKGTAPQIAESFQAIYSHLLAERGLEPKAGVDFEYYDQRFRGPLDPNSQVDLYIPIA

**Q.** What does the source list for `Nc1nc2c(ncn2[C@@H]2O[C@@H]3COP(=O)(O)O[C@H]4[C@@H](O)[C@H](n5cnc6c(=O)[nH]c(N)nc65)O[C@@H]4COP(=O)(O)O[C@H]3[C@H]2O)c(=O)[nH]1` [c-di-GMP, cyclic diguanylate monophosphate]?
**A.** BrlR-DNA complex in the presence vs absence of c-di-GMP (C2E mut1 DNA binding): 1.5 fold; Kd (BrlR mutant R31A): 42.7 ± 5.4 µM; Kd (BrlR mutant Y270A): 40.8 ± 3.8 µM; Kd (BrlR mutant R67A): 16.4 ± 1 µM; KD value (in words) (BrlR mutant R86A): like that of C2E mut2; Kd (BrlR): 2690 µM
